The source of these data is publication PMC10424183, “Determination of Ligand-Binding Affinity (Kd) Using Transverse Relaxation Rate (R2) in the Ligand-Observed ^1H NMR Experiment and Applications to Fragment-Based Drug Discovery” (Journal of Medicinal Chemistry, 2023).

SMILES strings stand for the structures. pKd, pKi: −log10 of the molar value. Like-named read-outs stand apart in the source and are kept apart here.

Experiment [1] addresses T1, BCL6 BTB (Homo sapiens, UniProt P41182).
T1 construct: made in house
Also noted: method as in PMID 36329085. Conditions: SPR; read-out: Kd value from SPR assay (printed in the Ki column, footnote a); cited from earlier work.

The target in experiment [2] is T1, BCL6 BTB. Kind of experiment: R2KD ligand-observed 1H NMR assay (Kd from transverse relaxation rate R2). In kind it is binding. As for the experimental part:
(§1) Four aqueous stock solutions were prepared in Eppendorf Safe-Lock tubes (Cat no. 0030120094) by manual pipetting: (1) ligand aqueous stock solution was prepared by adding 50 mM ligand DMSO-d6 solution to aqueous buffer; (2) dimethyl sulfoxide (DMSO) aqueous stock solution was prepared by adding the same volume of DMSO-d6 as ligand DMSO-d6 solution to aqueous buffer; (3) protein aqueous stock solution was prepared by adding protein solution to aqueous buffer; and (4) aqueous solution was the buffer used in the assay.
Samples were prepared on a Bruker SamplePro-Tube liquid handler by mixing different volume of the four aqueous stocks in 96-well microplates (Greiner 650201) and then transferred to 3 mm NMR tubes (Figure 2). 10 samples were prepared: samples 1–8 containing increasing ligand concentration (maintaining constant protein concentration); sample 9 and 10 containing only ligands at two different concentrations (protein absent). These two samples served as control samples to obtain the R2 values of free ligand. The final percentage of DMSO-d6 in all samples were identical to minimize possible impacts of DMSO-d6.
The R2 values of four aromatic ^1H-NMR signals (Figure 3B) were experimentally determined (Figure 3C) and (R2,obs – R2F) * LT values were calculated using Excel and used as y-axis values in Prism, while ligand concentrations were plotted as the x-axis values (Figure 3D). All four NMR peaks were used to fit a global Kd with non-linear regression using a customized equation (see Experimental Section), while α values were fitted as an individual parameter for each peak (Figure 3E) as α values differ depending on the individual proton’s environment. While it was possible to fit Kd values using individual NMR peaks and then average the values (Figure 3F), we found using a global fitting algorithm increased robustness of curve fitting and better accommodated outliers in the data. The goodness of fit was judged by 95% confidence interval (CI) (profile likelihood) values and R squared value. The global Kd obtained here is close to the Ki value (54 vs 50 μM) although from our accuracy study, the differences can be larger (see section “Assay Accuracy”).
NMR data were collected at 298 K on a Bruker AVANCE NEO 600 MHz spectrometer, equipped with 5 mm TCI CryoProbe using Bruker Topspin 4.0. The T2 relaxation experiment was acquired using pulse program CPMG with 3-9-19 pulse sequence with gradients incorporated to suppress the water signal.[22] Extra water suppression was achieved by adding presaturation during D1. The spin-echo period (delay-180°-delay) was set to 1 msec (d20 is 500 μs), and the relaxation delay (d1) was set to 10 s. The pseudo-2D experiment contained nine slices with spin-echo period repeated the following times: 4, 20, 100, 200, 300, 500, 700, 1000, and 2000. The T2 relaxation experiment was processed using MestReNova 14.1, and Data Analysis Module of MestReNova was used to obtain integrals of individual ^1H-NMR signals, which were used to calculate R2 with equation I = I0exp (−tR2).
Nonlinear regression analysis was carried out using GraphPad Prism 9.2.0. Equation 12 was defined in user-defined equations as: Y = 0.5α*((X + Kd + P) −sqrt((sqr(X + Kd + P)) – 4*P*X)) where Y was calculated from eq 13 and X is the total ligand concentration. Three parameters: P, α, and Kd were in the equation with the initial value set at 1. In the default constraints setting, P was “constant equal to” the total protein concentration, Kd was “shared value for all data sets”, and α was “must be greater than […]”. CIs of parameters was calculated at 95% level using Asymmetrical (Profile-likelihood) CI.

For another experiment, the target named is BCL6 BTB domain. Also noted: method as in PMID 35657291. Conditions: known Ki from TR-FRET binding assay; cited from earlier work. Background: Time-resolved FRET reads energy transfer from a long-lived donor to a nearby acceptor.
For experiment [3], the target named is T2, ERAP1 (Homo sapiens, UniProt Q9NZ08).
T2 construct: made in house
T2 sequence (Q9NZ08 whole entry, species assumed): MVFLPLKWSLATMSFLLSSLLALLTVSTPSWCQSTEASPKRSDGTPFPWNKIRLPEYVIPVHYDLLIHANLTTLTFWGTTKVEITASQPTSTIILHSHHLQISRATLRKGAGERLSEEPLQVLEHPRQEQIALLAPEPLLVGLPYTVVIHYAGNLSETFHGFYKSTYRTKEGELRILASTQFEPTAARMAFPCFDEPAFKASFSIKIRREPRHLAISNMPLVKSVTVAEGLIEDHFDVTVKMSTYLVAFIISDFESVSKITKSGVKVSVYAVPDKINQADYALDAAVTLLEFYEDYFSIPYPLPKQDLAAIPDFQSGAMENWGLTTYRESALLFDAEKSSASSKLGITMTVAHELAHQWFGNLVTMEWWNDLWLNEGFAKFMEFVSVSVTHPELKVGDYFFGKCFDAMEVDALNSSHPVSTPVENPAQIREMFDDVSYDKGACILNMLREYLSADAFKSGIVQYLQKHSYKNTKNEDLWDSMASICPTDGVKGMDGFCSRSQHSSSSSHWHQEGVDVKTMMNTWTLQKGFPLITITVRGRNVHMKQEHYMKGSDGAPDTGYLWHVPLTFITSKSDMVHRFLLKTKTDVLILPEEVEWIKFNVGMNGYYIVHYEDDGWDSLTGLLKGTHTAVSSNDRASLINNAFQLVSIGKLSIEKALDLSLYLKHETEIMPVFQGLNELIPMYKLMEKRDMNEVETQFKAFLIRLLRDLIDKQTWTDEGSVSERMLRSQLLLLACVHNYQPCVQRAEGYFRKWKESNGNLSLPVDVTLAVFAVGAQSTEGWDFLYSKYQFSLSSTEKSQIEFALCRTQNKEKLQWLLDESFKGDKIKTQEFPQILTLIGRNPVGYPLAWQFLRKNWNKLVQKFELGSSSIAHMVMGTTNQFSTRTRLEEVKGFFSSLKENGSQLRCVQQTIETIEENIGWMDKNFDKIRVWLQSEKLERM
Kind of experiment: R2KD ligand-observed 1H NMR assay (Kd from transverse relaxation rate R2). In kind it is binding. Conditions: repeated three times (average). On the procedure: as §1
Samples were prepared on a Bruker SamplePro-Tube liquid handler by mixing different volume of the four aqueous stocks in 96-well microplates (Greiner 650201) and then transferred to 3 mm NMR tubes (Figure 2). 10 samples were prepared: samples 1–8 containing increasing ligand concentration (maintaining constant protein concentration); sample 9 and 10 containing only ligands at two different concentrations (protein absent). These two samples served as control samples to obtain the R2 values of free ligand. […]
Nonlinear regression analysis was carried out using GraphPad Prism 9.2.0. Equation 12 was defined in user-defined equations as: Y = 0.5α*((X + Kd + P) −sqrt((sqr(X + Kd + P)) – 4*P*X)) where Y was calculated from eq 13 and X is the total ligand concentration. […] CIs of parameters was calculated at 95% level using Asymmetrical (Profile-likelihood) CI.

The target of experiment [4] is T2, ERAP1. Also on record: method as in PMID 31841350. Conditions: known Ki from biochemical binding assay; cited from earlier work.
Setting [5] is: R2KD assay, repeated three times (average), read-out: Kd.

Consider `Cc1cc(Nc2ccc(F)cc2)n2ncnc2n1` [CCT040036], for which the pKd on BCL6 BTB [1] was 2.82; on BCL6 BTB [2] (R2KD assay upper detection limit example, read-out: largest Kd determined accurately), around 3.00; on BCL6 BTB [2] (setting [5]), 2.98; at BCL6 BTB [2] (single experiment, four peaks, global Kd fitting, unit inferred, read-out: Kd, global (shared) fit) it was 3.04.

On to `Cc1nccc(Nc2cnn(CCO)c2)c1C#N` [CCT365133], for which the pKd on BCL6 BTB [2] (5 μM BCL6, average of Peaks 1-4, unit inferred, read-out: Kd, average of individual peak fits) was 4.21; on BCL6 BTB [2] (5 μM BCL6, individual peak fit, unit inferred, read-out: Kd fitted using individual peak, Peak 1), 4.26; on BCL6 BTB [2] (5 μM BCL6, individual peak fit, unit inferred, read-out: Kd fitted using individual peak, Peak 2), 4.28; at BCL6 BTB [2] (5 μM BCL6, individual peak fit, unit inferred, read-out: Kd fitted using individual peak, Peak 3), 4.11; at BCL6 BTB [2] (5 μM BCL6, individual peak fit, unit inferred, read-out: Kd fitted using individual peak, Peak 4) it was 4.25; at BCL6 BTB [2] (5 μM protein, peak 3, read-out: Kd at 5 μM protein), 4.15. For the same compound, the pKd at BCL6 BTB [2] (25 μM protein, peak 3, read-out: Kd at 25 μM protein) is 4.24; on BCL6 BTB [2] (35 μM protein, peak 3, read-out: Kd at 35 μM protein), 4.15; on BCL6 BTB [2] (setting [5]) it was 4.29; on BCL6 BTB [2] (ligand concentration increasing to 500 μM, no solubility limit, read-out: Kd, data set B) it was 4.17; on BCL6 BTB [2] (simplified graphical presentation, unit inferred, read-out: KD, curve fitting using calculated bound ligand concentration [PL]), 4.24; on BCL6 BTB [2] (single experiment, 5 μM BCL6, ligand 50-500 μM, four aromatic peaks, global Kd fitting, read-out: Kd, global (shared) fit), 4.27. In addition, the “Kd of data set A relative to data set B” value at BCL6 BTB [2] (limited solubility mimic versus full concentration series) was “around 10 fold”. The pKi (usually the Ki on a negative log10 scale, so that one unit is a factor of ten) at BCL6 BTB domain is 4.30.

Turning to `CC[C@H](O)Cn1c(=O)n(C)c2ccc(Nc3ccnc(Cl)c3C#N)cc21` [CCT367090], the pKd on BCL6 BTB [2] (setting [5]) is 5.15. Moreover, the negative-log Ki (pKi) on BCL6 BTB domain is 5.40.

Turning to `O=C(O)c1cccc(S(=O)(=O)Nc2ccccc2N2CCCCC2)c1` [CCT369304], the pKd at ERAP1 [3] is 3.71. In addition, the negative logarithm of the Ki (pKi) on ERAP1 [4] is 4.48.
